Drawing on patent publication US20150141381A1, “TETRACYCLINE COMPOUNDS HAVING TARGET THERAPEUTIC ACTIVITIES” (Paratek Pharmaceuticals, Inc., priority 2001, published 2015), this text covers MIC for 31 compounds.

Like-named read-outs stand apart in the source and are kept apart here.

Test [1] relates to S. aureus RN450. The test can be described thus: In Vitro Anti-Bacterial Activity Assay (MIC), gram positive. It counts as cell-based. The conditions noted are these: Staphylococcus aureus, RN450, 18 h.
Test [2] has as its system E. coli mL308 225. The test can be described thus: In Vitro Anti-Bacterial Activity Assay (MIC), gram negative. The test is classed as cell-based. The conditions noted are these: Escherichia coli, ML308225, 18 h.
Setting [3] is: gram positive bacteria, read-out: Antibiotic Activity Gram + (MIC).
[4] abbreviates: gram negative bacteria, read-out: Antibiotic Activity Gram − (MIC).
The mark [5] stands for this setting: MIC class, Table 3, read-out: Antibiotic Activity Gram +.
The mark [6] stands for this setting: MIC class, Table 3, read-out: Antibiotic Activity Gram −.
[7] abbreviates: MIC class, Table 3 (Continued), read-out: Gram+ activity.
The mark [8] stands for this setting: MIC class, Table 3 (Continued), read-out: Gram− activity.

With `CNC(=O)C1CCN(Cc2cc(N(C)C)c3c(c2O)C(=O)C2=C(O)[C@]4(O)C(=O)C(C(N)=O)=C(O)[C@@H](N(C)C)[C@@H]4C[C@@H]2C3)CC1`, the MIC in test [1] (setting [3]) and in test [2] (setting [4]) was below 4 µg/mL in each case.
With `CN(C)c1cc(NCc2ccccc2OC(C)(C)C)c(O)c2c1C[C@H]1C[C@H]3[C@H](N(C)C)C(O)=C(C(N)=O)C(=O)[C@@]3(O)C(O)=C1C2=O`, the figures for the MIC in test [1] (setting [3]) and in test [2] (setting [4]) were below 4 µg/mL and above 4 µg/mL, respectively.
For `CC(C)N1CCC(Nc2ccc3c(c2O)C(=O)C2=C(O)[C@]4(O)C(=O)C(C(N)=O)=C(O)[C@@H](N(C)C)[C@@H]4C[C@@H]2C3)CC1`, in that order: below 4 µg/mL and above 4 µg/mL.
Turning to `CN(C)[C@@H]1C(O)=C(C(N)=O)C(=O)[C@@]2(O)C(O)=C3C(=O)c4c(O)ccc(C#CCCCC#N)c4C[C@H]3C[C@@H]12` [BB], the MIC in test [1] (setting [5]) and in test [2] (setting [6]) was below 4 µg/mL throughout.
Regarding `COC(=O)c1cc(N)cc(-c2ccc(O)c3c2C[C@H]2C[C@H]4[C@H](N(C)C)C(O)=C(C(N)=O)C(=O)[C@@]4(O)C(O)=C2C3=O)c1` [HE], the MIC in test [1] (setting [5]) is below 4 µg/mL; in test [2] (setting [6]) it was above 4 µg/mL.
As to `C[C@H]1c2ccc(CNC(=O)c3ccccc3)c(O)c2C(=O)C2=C(O)[C@]3(O)C(=O)C(C(N)=O)=C(O)[C@@H](N(C)C)[C@@H]3[C@@H](O)[C@@H]21` [JO], the MIC in test [1] (setting [5]) was below 4 µg/mL; in test [2] (setting [6]), above 4 µg/mL.
For `Cc1ccc(-c2ccc(O)c3c2C[C@H]2C[C@H]4[C@H](N(C)C)C(O)=C(C(N)=O)C(=O)[C@@]4(O)C(O)=C2C3=O)nc1`, the MIC in test [1] (setting [3]) and in test [2] (setting [4]) was below 4 µg/mL throughout.
Turning to `CN(C)c1cc(CN2CCC(C(F)(F)F)CC2)c(O)c2c1C[C@H]1C[C@H]3[C@H](N(C)C)C(O)=C(C(N)=O)C(=O)[C@@]3(O)C(O)=C1C2=O`, the MIC in test [1] (setting [3]) and in test [2] (setting [4]) was below 4 µg/mL in each case.
In the case of `COc1ccc(C#Cc2cc(N(C)C)c3c(c2O)C(=O)C2=C(O)[C@]4(O)C(=O)C(C(N)=O)=C(O)[C@@H](N(C)C)[C@@H]4C[C@@H]2C3)cc1`, the MIC in test [1] (setting [7]) and in test [2] (setting [8]) was below 4 µg/mL in each case.
For `CNCC#Cc1ccc(O)c2c1C[C@H]1C[C@H]3[C@H](N(C)C)C(O)=C(C(N)=O)C(=O)[C@@]3(O)C(O)=C1C2=O` [KR], the MIC in test [1] (setting [5]) and in test [2] (setting [6]) was below 4 µg/mL each time.
Consider `CNC(=O)Oc1ccc(-c2ccc(O)c3c2C[C@H]2C[C@H]4[C@H](N(C)C)C(O)=C(C(N)=O)C(=O)[C@@]4(O)C(O)=C2C3=O)cc1`, for which the MIC in test [1] (read-out: Antibiotic Activity Gram + (MIC)) and in test [2] (read-out: Antibiotic Activity Gram − (MIC)) was below 4 µg/mL throughout.
As to `Cc1ccc(C#Cc2ccc(O)c3c2C[C@H]2C[C@H]4[C@H](N(C)C)C(O)=C(C(N)=O)C(=O)[C@@]4(O)C(O)=C2C3=O)cc1`, the MIC in test [1] (setting [7]) and in test [2] (setting [8]) was below 4 µg/mL throughout.
As to `CC(C)NCc1ccc(O)c2c1C[C@H]1C[C@H]3C(N(C)C)C(O)=C(C(N)=O)C(=O)[C@@]3(O)C(O)=C1C2=O` (some centres unmarked) [KK], the MIC in test [1] (setting [5]) and in test [2] (setting [6]) was below 4 µg/mL each time.
For the compound `C[C@H]1c2ccc(-c3cccc(C=O)c3)c(O)c2C(=O)C2=C(O)[C@]3(O)C(=O)C(C(N)=O)=C(O)[C@@H](N(C)C)[C@@H]3[C@@H](O)[C@@H]21`, the MIC in test [1] (setting [3]) and in test [2] (setting [4]) was below 4 µg/mL in each case.
For the compound `C[C@H]1c2ccc(-c3ccc(N(C)C)cc3)c(O)c2C(=O)C2=C(O)[C@]3(O)C(=O)C(C(N)=O)=C(O)[C@@H](N(C)C)[C@@H]3[C@@H](O)[C@@H]21`, the MIC in test [1] (setting [3]) and in test [2] (setting [4]) was below 4 µg/mL throughout.
For the compound `CCCCOc1ccc(-c2ccc(N(C)C)cc2)c2c1C(=O)C1=C(O)[C@]3(O)C(=O)C(C(N)=O)=C(O)[C@@H](N(C)C)[C@@H]3C[C@@H]1C2`, the values for the MIC in test [1] (setting [3]) and in test [2] (setting [4]) were below 4 µg/mL and above 4 µg/mL, respectively.
For `CN(C)[C@H]1C(O)=C(C(N)=O)C(=O)[C@@]2(O)C(O)=C3C(=O)c4c(O)c(CNCC(C)(C)C)cc(-c5ccoc5)c4C[C@H]3C[C@@H]12` [NP], the MIC in test [1] (setting [5]) and in test [2] (setting [6]) was below 4 µg/mL in each case.
`CN(C)CCNC(=O)c1cccc(-c2ccc(O)c3c2C[C@H]2C[C@H]4[C@H](N(C)C)C(O)=C(C(N)=O)C(=O)[C@@]4(O)C(O)=C2C3=O)c1`: the MIC in test [1] (setting [3]) was below 4 µg/mL; in test [2] (setting [4]), above 4 µg/mL.
Take `CN(C)c1cc(N2CCOCC2)c(O)c2c1C[C@H]1C[C@H]3[C@H](N(C)C)C(O)=C(C(N)=O)C(=O)[C@@]3(O)C(O)=C1C2=O`: the MIC in test [1] (setting [3]) and in test [2] (setting [4]) was above 4 µg/mL in each case.
Take `CC(C)Cc1ccc(O)c2c1C[C@H]1C[C@H]3[C@H](N(C)C)C(O)=C(C(N)=O)C(=O)[C@@]3(O)C(O)=C1C2=O`: the MIC in test [1] (setting [3]) and in test [2] (setting [4]) was below 4 µg/mL each time.
As to `CN(C)c1cc(CN2C3CCC2CC3)c(O)c2c1C[C@H]1C[C@H]3[C@H](N(C)C)C(O)=C(C(N)=O)C(=O)[C@@]3(O)C(O)=C1C2=O`, the MIC in test [1] (setting [3]) was below 4 µg/mL; in test [2] (setting [4]), above 4 µg/mL.
Turning to `CNCc1cc(N(C)C)c2c(c1O)C(=O)C1=C(O)[C@]3(O)C(=O)C(C(N)=O)=C(O)[C@@H](N(C)C)[C@@H]3C[C@@H]1C2`, the figures for the MIC in test [1] (setting [3]) and in test [2] (setting [4]) were below 4 µg/mL and above 4 µg/mL, respectively.
With `CO/N=C(/C)c1ccc(O)c2c1C[C@H]1C[C@H]3C(N(C)C)C(O)=C(C(N)=O)C(=O)[C@@]3(O)C(O)=C1C2=O` (some centres unmarked) [ET], the MIC in test [1] (setting [5]) and in test [2] (setting [6]) was below 4 µg/mL throughout.
For `C[C@H]1c2ccc(CNCCc3ccccc3)c(O)c2C(=O)C2=C(O)[C@]3(O)C(=O)C(C(N)=O)=C(O)[C@@H](N(C)C)[C@@H]3[C@@H](O)[C@@H]21` [JI], the MIC in test [1] (setting [5]) and in test [2] (setting [6]) was below 4 µg/mL throughout.
For `CC(=O)c1cc(N(C)C)c2c(c1O)C(=O)C1=C(O)[C@]3(O)C(=O)C(C(N)=O)=C(O)[C@@H](N(C)C)[C@@H]3C[C@@H]1C2` [MQ], the MIC in test [1] (setting [5]) and in test [2] (setting [6]) was above 4 µg/mL throughout.
As to `CCNc1ccc(-c2ccc(O)c3c2C[C@H]2C[C@H]4[C@H](N(C)C)C(O)=C(C(N)=O)C(=O)[C@@]4(O)C(O)=C2C3=O)cc1`, the MIC in test [1] (setting [7]) and in test [2] (setting [8]) was below 4 µg/mL each time.
Take `CC1c2cccc(O)c2C(=O)C2=C(O)[C@]3(O)C(=O)C(C(N)=O)=C(O)[C@@H](N(C)C)[C@@H]3[C@@H](OC(=O)C3CCCCC3)[C@@H]21` (some centres unmarked): the MIC in test [1] (setting [7]) and in test [2] (setting [8]) was below 4 µg/mL in each case.
Regarding `CN(C)c1cc(NC(=N)NCc2ccccc2)c(O)c2c1C[C@H]1C[C@H]3C(N(C)C)C(O)=C(C(N)=O)C(=O)[C@@]3(O)C(O)=C1C2=O` (some centres unmarked) [GM], the MIC in test [1] (setting [5]) and in test [2] (setting [6]) was above 4 µg/mL each time.
Take `COC(=O)c1ccc(O)c2c1C[C@H]1C[C@H]3[C@H](N(C)C)C(O)=C(C(N)=O)C(=O)[C@@]3(O)C(O)=C1C2=O`: the MIC in test [1] (setting [3]) and in test [2] (setting [4]) was below 4 µg/mL throughout.
In the case of `C[C@H]1c2cccc(O)c2C(=O)C2=C(O)[C@]3(O)C(=O)C(C(N)=O)=C(O)[C@@H](N(C)C)[C@@H]3[C@@H](OC(=O)CCN3CCCC3)[C@@H]21` [R], the MIC in test [1] (setting [5]) and in test [2] (setting [6]) was below 4 µg/mL in each case.
For `CN(C)c1cc(CNC2CCCC2)c(O)c2c1C[C@H]1C[C@H]3[C@H](N(C)C)C(O)=C(C(N)=O)C(=O)[C@@]3(O)C(O)=C1C2=O`, the figures for the MIC in test [1] (setting [3]) and in test [2] (setting [4]) were below 4 µg/mL and above 4 µg/mL, respectively.
